# Assay results published in PMC7342775 (European journal of medicinal chemistry, 2020).
# Columns and labels:
# α1β3γ2 GABAAR [1] = details: cited from earlier work; for selectivity favoring the etomidate site / selectivity favoring the R-mTFD-MPAB sites: 4-substituted propofols
# α1β3γ2L GABAARs [2] = target: T1, α1β3γ2L GABAARs (Homo sapiens, UniProt P14867+P18507+P28472); assay: Modulation of [3H]muscimol binding, native HEK cell membranes
# α1β3γ2 GABAAR [3] = assay: Selectivity between etomidate and R-mTFD-MPAB sites; assay type: binding, human
# α1β3γ2L GABAARs [4] = target: T1, α1β3γ2L GABAARs; assay: Two-microelectrode voltage-clamp electrophysiology in Xenopus oocytes, wild type
# α1β3γ2L GABAARs [5] = target: T1, α1β3γ2L GABAARs; assay: [3H]pTFD-di-iPr-BnOH photolabeling and its inhibition; assay type: binding; details: with GABA; for inhibition of [3H]pTFD-di-iPr-BnOH photoincorporation into the β subunit: 300 μM etomidate, 30 μM allopregnanolone, fluorography
# α1β3 GABAARs = target: T2, α1β3 GABAARs (Homo sapiens, UniProt P14867+P28472); assay: Modulation of [3H]muscimol binding, α1β3 receptors
# T2 sequence (P14867 28-456): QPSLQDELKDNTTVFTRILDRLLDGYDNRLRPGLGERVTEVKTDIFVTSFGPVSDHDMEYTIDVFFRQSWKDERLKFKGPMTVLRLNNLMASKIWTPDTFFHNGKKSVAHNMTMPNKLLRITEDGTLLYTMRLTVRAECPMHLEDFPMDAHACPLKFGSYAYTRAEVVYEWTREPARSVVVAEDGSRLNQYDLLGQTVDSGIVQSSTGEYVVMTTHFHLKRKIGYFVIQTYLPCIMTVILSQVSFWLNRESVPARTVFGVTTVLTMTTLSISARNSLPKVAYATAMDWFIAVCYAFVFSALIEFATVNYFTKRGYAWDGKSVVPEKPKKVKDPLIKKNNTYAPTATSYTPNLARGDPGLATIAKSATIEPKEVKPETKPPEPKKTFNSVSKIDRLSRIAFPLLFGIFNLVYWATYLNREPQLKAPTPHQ
# T2 sequence (P28472 26-473): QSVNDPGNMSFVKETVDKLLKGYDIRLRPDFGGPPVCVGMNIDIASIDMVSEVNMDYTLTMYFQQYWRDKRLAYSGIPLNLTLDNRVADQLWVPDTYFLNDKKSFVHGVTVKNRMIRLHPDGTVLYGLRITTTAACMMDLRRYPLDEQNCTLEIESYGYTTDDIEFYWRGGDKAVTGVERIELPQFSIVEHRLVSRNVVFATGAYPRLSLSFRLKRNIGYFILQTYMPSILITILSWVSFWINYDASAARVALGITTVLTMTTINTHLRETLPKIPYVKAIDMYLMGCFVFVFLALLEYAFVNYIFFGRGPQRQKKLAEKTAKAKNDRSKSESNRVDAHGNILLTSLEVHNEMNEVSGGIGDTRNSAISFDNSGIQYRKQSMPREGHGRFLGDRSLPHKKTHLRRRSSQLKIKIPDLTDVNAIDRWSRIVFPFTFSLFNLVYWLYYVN
# α1β3γ2L GABAARs [6] = target: T1, α1β3γ2L GABAARs; assay: Inhibition of [3H]R-mTFD-MPAB photolabeling; assay type: binding
# α1(S270I)β3γ2L receptors = α1(S270I)β3γ2L receptors (Homo sapiens, UniProt P14867+P18507+P28472, S297I); assay: Oocyte electrophysiology, enhancement of low-GABA currents, α1 S270I mutant; assay type: cell-based; details: for enhancement of GABA currents compared to wild type: 5 μM etomidate, 8 μM R-mTFD-MPAB
# α1β3γ2L GABAARs [7] = target: T1, α1β3γ2L GABAARs; assay: Inhibition of [3H]azietomidate photolabeling; assay type: binding; details: in the presence of 300 μM etomidate
# Xenopus laevis tadpoles = assay: Loss of righting reflexes; assay type: in vivo
# Sequence of α1(S270I)β3γ2L receptors (P14867 28-456 S297I, one chain of several): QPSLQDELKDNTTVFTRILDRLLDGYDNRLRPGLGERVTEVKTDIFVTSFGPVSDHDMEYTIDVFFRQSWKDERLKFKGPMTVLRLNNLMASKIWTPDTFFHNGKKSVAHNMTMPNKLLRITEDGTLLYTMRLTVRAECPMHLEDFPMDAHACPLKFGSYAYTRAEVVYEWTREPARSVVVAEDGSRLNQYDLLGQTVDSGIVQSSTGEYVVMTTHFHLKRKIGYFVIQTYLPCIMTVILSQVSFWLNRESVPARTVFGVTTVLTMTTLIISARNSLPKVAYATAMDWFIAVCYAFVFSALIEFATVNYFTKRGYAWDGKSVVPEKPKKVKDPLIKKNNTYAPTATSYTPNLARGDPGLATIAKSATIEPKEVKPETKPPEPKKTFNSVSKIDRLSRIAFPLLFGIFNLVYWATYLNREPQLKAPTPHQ
# Sequence of α1(S270I)β3γ2L receptors (P18507 40-475, one chain of several): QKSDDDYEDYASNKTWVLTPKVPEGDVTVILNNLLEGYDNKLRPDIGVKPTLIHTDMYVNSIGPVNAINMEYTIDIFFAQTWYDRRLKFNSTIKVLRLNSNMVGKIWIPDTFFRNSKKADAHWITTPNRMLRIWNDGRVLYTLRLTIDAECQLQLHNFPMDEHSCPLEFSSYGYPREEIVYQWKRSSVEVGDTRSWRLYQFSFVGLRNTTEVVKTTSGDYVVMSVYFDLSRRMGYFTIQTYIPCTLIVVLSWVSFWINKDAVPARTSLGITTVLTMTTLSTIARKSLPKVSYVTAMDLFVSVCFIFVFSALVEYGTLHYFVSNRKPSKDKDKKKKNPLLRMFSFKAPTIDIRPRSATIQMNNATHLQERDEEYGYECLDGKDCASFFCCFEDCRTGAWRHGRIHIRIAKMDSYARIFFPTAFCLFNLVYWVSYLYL
# T1 sequence (P18507 40-475, one chain of several): as above
compound,measurement,setting,value
CC(C)c1cc(Cl)cc(C(C)C)c1O [4-Cl-propofol],selectivity favoring the etomidate site,α1β3γ2 GABAAR [1],4 fold
CC(C)c1cc(C(=O)c2ccccc2)cc(C(C)C)c1O [4-benzoylpropofol],high affinity R-mTFD-MPAB site favored over the etomidate site,α1β3γ2 GABAAR [1],200 fold
same,low affinity R-mTFD-MPAB site favored over the etomidate sites,α1β3γ2 GABAAR [1],3 fold
"OCc1ccccc1 [BnOH, benzyl alcohol]",LoRR at lower concentrations than modulation of [3H]muscimol binding,α1β3γ2L GABAARs [2]; tadpole LoRR vs HEK cell membranes,~20 times
same,modulation of [3H]muscimol binding,α1β3γ2L GABAARs [2]; up to 50 mM,no modulation
"CC(C)c1cccc(C(C)C)c1CO [Di-iPr-BnOH, (2,6-diisopropylphenyl)methanol]",selectivity favoring the etomidate site over R-mTFD-MPAB site,α1β3γ2 GABAAR [3],2–3 fold
"NCCCC(=O)O [GABA, γ-aminobutyric acid]",elicited currents,α1β3γ2L GABAARs [4]; 1 mM GABA,3.2 ± 1.5 μA
same,Hill coefficient nH of GABA concentration-response curve,α1β3γ2L GABAARs [4]; GABA alone,1.0 ± 0.1
CC(=O)c1cc(C(C)C)c(O)c(C(C)C)c1 [Me–CO–],selectivity favoring the R-mTFD-MPAB sites,α1β3γ2 GABAAR [1],1.5 fold
CC(C)c1cc(C(O)c2ccccc2)cc(C(C)C)c1O (centres unmarked) [Ph–C(OH)–],selectivity favoring the R-mTFD-MPAB sites,α1β3γ2 GABAAR [1],5.3 fold
CC(C)c1cccc(C(C)C)c1O [Propofol],selectivity favoring the etomidate site,α1β3γ2 GABAAR [1],5.5 fold
same,extent of inhibition of [3H]pTFD-di-iPr-BnOH photolabeling,"α1β3γ2L GABAARs [5]; 300 μM, β subunit",to the same extent as the background labeling
same,EC50,α1β3 GABAARs,7 ± 1.7 µM
"C=CCC1(c2cccc(C3(C(F)(F)F)N=N3)c2)C(=O)NC(=O)N(C)C1=O (centres unmarked) [R–mTFD-MPAB, (5-allyl-1-methyl-5-(3-(3-(trifluoromethyl)-3H-diazirin-3-yl)phenyl)pyrimidine-2,4,6(1H,3H,5H)-trione)]",non-specific [3H]R-mTFD-MPAB photolabeling (Bns),α1β3γ2L GABAARs [6]; in the presence of 60 μM R-mTFD-MPAB,13 ± 4%
same,enhancement of GABA currents compared to wild type,α1(S270I)β3γ2L receptors,significantly reduced
CC(=O)[C@H]1CC[C@H]2[C@@H]3CC[C@H]4C[C@H](O)CC[C@]4(C)[C@H]3CC[C@]12C [allopregnanolone],inhibition of [3H]pTFD-di-iPr-BnOH photoincorporation into the β subunit,α1β3γ2L GABAARs [5],little inhibition of photolabeling
CCOC(=O)c1cncn1[C@H](C)c1ccccc1 [etomidate],inhibition of [3H]pTFD-di-iPr-BnOH photoincorporation into the β subunit,α1β3γ2L GABAARs [5],little inhibition of photolabeling
same,non-specific [3H]azietomidate photolabeling (Bns),α1β3γ2L GABAARs [7],13 ± 3%
same,enhancement of GABA currents compared to wild type,α1(S270I)β3γ2L receptors,comparable to that in wild-type
"CC(C)c1cc(C2(C(F)(F)F)N=N2)cc(C(C)C)c1CO [pTFD-di-iPr-BnOH, (2,6-diisopropyl-4-(3-(trifluoromethyl)-3H-diazirin-3-yl)phenyl)methanol]",fraction of tadpoles that did not recover from anesthesia,Xenopus laevis tadpoles; at 2 μM,4/7
same,fraction of tadpoles that did not recover from anesthesia,Xenopus laevis tadpoles; at 3 μM,6/9
same,fraction of tadpoles that did not recover from anesthesia,Xenopus laevis tadpoles; at 10 μM,7/10
same,increase in LoRR potency,Xenopus laevis tadpoles; relative to Di-iPr-BnOH,6 fold
same,IC50,α1β3γ2L GABAARs [6],73 ± 10 µM
same,reduction of enhancement compared to wild type,α1(S270I)β3γ2L receptors; 10 μM pTFD-di-iPr-BnOH,more than 50%
CC(C)c1cc(C(C)(C)C)cc(C(C)C)c1O [t-Bu–],selectivity favoring the R-mTFD-MPAB sites,α1β3γ2 GABAAR [1],8 fold
